Source: patent US20170050962A1, “IMIDAZO[1,2-A]PYRIDINES AS STIMULATORS OF SOLUBLE GUANYLATE CYCLASE FOR TREATING CARDIOVASCULAR DISEASES” (BAYER PHARMA AKTIENGESELLSCHAFT, priority 2014, published 2017)

System: recombinant guanylate cyclase reporter cell line
Assay: Effect on a recombinant guanylate cyclase reporter cell line
Assay type: cell-based
Conditions: in some cases mean values for individual determinations
Procedure: B-2. Effect on a Recombinant Guanylate Cyclase Reporter Cell Line
The cellular activity of the compounds according to the invention is determined using a recombinant guanylate cyclase reporter cell line, as described in F. Wunder et al., Anal. Biochem. 339, 104-112 (2005).
Representative MEC values (MEC=minimum effective concentration) for the compounds of the invention are shown in the table below (in some cases as mean values for individual determinations): […]

| Structure (SMILES) | MEC (minimum effective concentration) [µM] |
| --- | --- |
| Cc1cc(OCc2c(F)cccc2F)c2nc(C)c(C3=CC(=NO)CC(C)(C)N3)n2c1 (stereo in doubt) [Example 5, (4E)-6-{8-[(2,6-Difluorobenzyl)oxy]-2,6-dimethylimidazo[1,2-a]pyridin-3-yl}-N-hydroxy-2,2-dimethyl-2,3-dihydropyridine-4(1H)-imine] | 0.03 |
| Cc1cc(OCc2c(F)cccc2F)c2nc(C)c(-c3ccc(=O)n(CC(C)(C)N)c3)n2c1 [Example 1, 1-(2-Amino-2-methylpropyl)-5-{8-[(2,6-difluorobenzyl)oxy]-2,6-dimethylimidazo[1,2-a]pyridin-3-yl}pyridin-2(1H)-one] | 1.0 |
| Cc1cc(OCc2c(F)cccc2F)c2nc(C)c(-c3ccc(OCC(C)(C)N)nc3)n2c1 [Example 2, 1-[(5-{8-[(2,6-Difluorobenzyl)oxy]-2,6-dimethylimidazo[1,2-a]pyridin-3-yl}pyridin-2-yl)oxy]-2-methylpropan-2-amine] | 0.3 |
| Cc1cc(OCc2c(F)cccc2F)c2nc(C)c(-c3ccn(CC(C)(C)N)c(=O)c3)n2c1 [Example 3, 1-(2-Amino-2-methylpropyl)-4-{8-[(2,6-difluorobenzyl)oxy]-2,6-dimethylimidazo[1,2-a]pyridin-3-yl}pyridin-2(1H)-one] | 1.0 |
| Cc1cc(OCc2c(F)cccc2F)c2nc(C)c(-c3ccnc(OCC(C)(C)N)c3)n2c1 [Example 4, 1-[(4-{8-[(2,6-Difluorobenzyl)oxy]-2,6-dimethylimidazo[1,2-a]pyridin-3-yl}pyridin-2-yl)oxy]-2-methylpropan-2-amine] | 0.03 |
| Cc1cc(OCc2c(F)cccc2F)c2nc(C)c(-c3nc(OCC(C)(C)N)n[nH]3)n2c1 [Example 6, 1-[(5-{8-[(2,6-Difluorobenzyl)oxy]-2,6-dimethylimidazo[1,2-a]pyridin-3-yl}-1H-1,2,4-triazol-3-yl)oxy]-2-methylpropan-2-amine] | 3.0 |
| Cc1cc(OCc2c(F)cccc2F)c2nc(C)c(-c3cc[nH]c(=O)c3)n2c1 [Example 8, 4-{8-[(2,6-Difluorobenzyl)oxy]-2,6-dimethylimidazo[1,2-a]pyridin-3-yl}pyridin-2(1H)-one] | 1.0 |
